In PMC12067444, “Synthesis and Pharmacological Characterization of Novel Peripheral Cannabinoid-1 Receptor Blockers Based on a Tricyclic Scaffold” (Journal of Medicinal Chemistry, 2025):
Values joined by “and” are separate entries in the source; they are usually repeats but may differ in a detail not shown here. Identical values can stand only once.

How the values were obtained:
[1] = tested on: TA98; experiment: Mini-Ames assay, strain TA98; type: cell-based; conditions: Salmonella typhimurium
Description: (§1) Mini Am es assay. To conduct the assay, top agar was melted with a microwave and maintained at a temper atur e ≥47 °C in a water bath. T he assay was performed using a heat block set to 45 °C ± 2 °C. 12 × 75 mm test tubes were prepared in duplicates. For each concentration, the following components were added sequentially to a test tube:
(§2) […] The mixture was vortexed and then dispensed into w ells using a dispo sable pipette. The plates wer e then incubated at 37±2 °C for approximately 48 to 72 hours.
(§3) BBbbbb BBBBbbbb BBBB = AAAAbbbbbbAAbb nnnnnnbbbbbb bboo bbbbAAbbbbbbbbnnbbbb oobbbb bbbb eeee dd bbbbbb AAbbbbnn gg AAAAbbbbbbAAbb nnnnnnbbbbbb bbBB bbbbAAbbbbbbbbnnbbbb BBbbbb DDDDDDDD nn bbAAbbbbaaAAbb AAbbbbnnaa The mutagenicity of the compound was determined by evaluating the number of revertant colonies in strains TA98 and TA100. A compound was […]
(§4) related and if the fold increase in revertants (F) was equal to or greater than 2 for […]
(§5) background lawn growth on the agar plates. A scoring system ranging from 0 to 4 […]
growth, respectively. A score of 4 signified full '100%' growth. […]
(§6) background lawn and required magnification for visualization. […]

[2] = tested on: TA100; experiment: Mini-Ames assay, strain TA100; type: cell-based
Description: as §1, §2, §3, §4, §5
complete cytotoxicity, while scores 1, 2, and 3 represented 25%, 50%, and 75% growth, respectively. A score of 4 signified full '100%' growth. The background […]
as §6

[3] = biological target: T1, mouse CB1R (Mus musculus, UniProt P47746); experiment: Radioligand competition displacement binding, [3H]CP-55,940, mouse brain membranes; conditions: [3H]CP-55,940 displacement, mouse brain membranes; read-out: CB1R mKi
T1 construct: crude membranes from mouse brain; from tissue; host or cells: mouse brain cortex (without cerebellum) membranes, C57Bl/6Jhsd mice
T1 sequence (P47746 whole entry): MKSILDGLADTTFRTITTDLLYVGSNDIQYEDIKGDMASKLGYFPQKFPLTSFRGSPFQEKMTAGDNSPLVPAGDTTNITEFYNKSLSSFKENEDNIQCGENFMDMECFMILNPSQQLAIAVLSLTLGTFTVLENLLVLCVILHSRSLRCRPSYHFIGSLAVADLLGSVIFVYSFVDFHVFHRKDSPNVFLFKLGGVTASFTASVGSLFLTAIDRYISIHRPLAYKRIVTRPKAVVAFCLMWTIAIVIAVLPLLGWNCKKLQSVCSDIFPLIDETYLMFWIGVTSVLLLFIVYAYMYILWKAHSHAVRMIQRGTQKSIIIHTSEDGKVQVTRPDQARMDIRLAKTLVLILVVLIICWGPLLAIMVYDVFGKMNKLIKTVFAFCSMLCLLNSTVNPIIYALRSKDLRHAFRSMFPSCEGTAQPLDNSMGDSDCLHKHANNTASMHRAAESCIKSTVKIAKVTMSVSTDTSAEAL
Description: (§7) BNS compounds’ binding to CB1R and CB2R was assessed in competition displacement assays using [^3H]CP-55,940 as the radioligand and crude membranes from mouse brain or human cells overexpressing the CB1R or CB2R. All data were in triplicates with Ki values determined from three independent experiments. See SI for a detailed procedure.
Supplementary Experimental Methods
Brain membrane preparation for CB1R b i nd i ng . The mouse cortex, excluding the cerebellum, was dissected from 6-week-old C57Bl/6Jhsd mice (Harlan, Israel). The tissue was homogenized in 4 mL Buffer 1 (320 mM sucrose, 2 mM EDTA, 5 m M MgCl 2) using a glass-Teflon homogenizer and Hei-T ORQUE 200 (Heidolph; Cat# 17-012- 002- 25 -1) homogenizer set to 132 rpm. After homogenization, the mixture was centrifuged at 1,600 × g for 10 min at four °C, and the resulting supernatant was kept on ice. The pellet (P1) was discarded, and the remaining supernatant was subje cted to additional rounds of resuspension in 4 mL Buffer 1 followed by centrifugations, repeating this process three times. The pellets obtained from these centrifugations were discarded, and the three supernatant fractions were combined and subjected to higher-speed centrifugation at 39,000 × g for 15 min at f ou r °C. […] This resuspended pellet ( P 2 ) was incubated at 37 °C for 10 min and then centrifuged at 23, 000 × g for 10 min at 4°C.
After centrifugation, the pellet (P2) was resuspended in 5 mL Buffer 2 and further incubated at 30 °C for 40 min. Following this incubation, the suspension was centrifuged at 11,000 × g for 15 min at 4 °C. The pellet (P2) was resuspended in 2 mL Buffer 3 containing 50 mM TRIS HCl pH 7.4, 1 mM EDTA, and 3 mM MgCl 2. T h e protein concentration of the final suspension was determined using the BCA assay.
Subsequently, the suspension was diluted to a final concentration of 2 mg/mL in Buffer 3, aliquoted on ice, and stored at - 80 °C for further use.
(§8) CB1R and CB2R binding. Binding to the CB1R/CB2R was asse ss ed using competition displacement as says with [ 3H] CP -55,940 as the radioligand. Purified membranes from the mouse brain were utilized for CB1R assessment (as described above). Purified […]
membranes from cells overexpressing human CB2R ( Char les River CAT # A618) w e r e employed for CB2R evaluation.
For mouse CB1R binding assays, the novel compounds were dissolved in dimethyl sulfoxide (DMSO) to reach a final concentration of 10 mM. Each compound was then diluted in Buffer 3 (as described above) supplemented with 0.14% BSA, resulting in concentrations ranging from 10^-4 M to 10^-10 M. Triplicates of 100 µL of each concentration were dispensed into siliconized glass tubes. At the same time, 100 µL of Buffer 3 with 0.14% BSA was dispensed into three tubes as blanks. CB1R b r a i n membranes (20 µg) were added to each tube and diluted with 800 µL Buffer 3 with 0.14% BSA. Subsequently, 5 nM of [ 3H] CP -55,940 (100 µL) was added to each tube.
The tubes were sealed with parafilm and incubated with shaking (120 rpm) in a water bath at 30 °C for 1 hour. Following incubation, 2 mL of cold Buffer 4 (50 mM TRIS HCl pH 7.4, 1 mg/mL BSA) was added to each tube.
To harvest the content of each tube, a Brandel M-24R Vacuum Harvester was employed, with a wet WHATMAN GF/B filter paper (Fired) (one membrane for 12 tubes) placed in the harvester after being washed twice with Buffer 4. The filter membrane in the harvester absorbed the full content of each tube. Then, the filter membrane was wash ed six times with Buffer 4. Each filter -glass membrane tube wa s excised and transferred to a 20 mL glass tube co ntaining a 5 mL ULTIMA GOLD scintillation cocktail. […]

[4] = biological target: P-gp (MDR1) (Homo sapiens, UniProt P08183); experiment: Bidirectional permeability in MDR1-MDCKII cells with and without GF120918; conditions: dog
Chain of P-gp (MDR1) (P08183 whole entry): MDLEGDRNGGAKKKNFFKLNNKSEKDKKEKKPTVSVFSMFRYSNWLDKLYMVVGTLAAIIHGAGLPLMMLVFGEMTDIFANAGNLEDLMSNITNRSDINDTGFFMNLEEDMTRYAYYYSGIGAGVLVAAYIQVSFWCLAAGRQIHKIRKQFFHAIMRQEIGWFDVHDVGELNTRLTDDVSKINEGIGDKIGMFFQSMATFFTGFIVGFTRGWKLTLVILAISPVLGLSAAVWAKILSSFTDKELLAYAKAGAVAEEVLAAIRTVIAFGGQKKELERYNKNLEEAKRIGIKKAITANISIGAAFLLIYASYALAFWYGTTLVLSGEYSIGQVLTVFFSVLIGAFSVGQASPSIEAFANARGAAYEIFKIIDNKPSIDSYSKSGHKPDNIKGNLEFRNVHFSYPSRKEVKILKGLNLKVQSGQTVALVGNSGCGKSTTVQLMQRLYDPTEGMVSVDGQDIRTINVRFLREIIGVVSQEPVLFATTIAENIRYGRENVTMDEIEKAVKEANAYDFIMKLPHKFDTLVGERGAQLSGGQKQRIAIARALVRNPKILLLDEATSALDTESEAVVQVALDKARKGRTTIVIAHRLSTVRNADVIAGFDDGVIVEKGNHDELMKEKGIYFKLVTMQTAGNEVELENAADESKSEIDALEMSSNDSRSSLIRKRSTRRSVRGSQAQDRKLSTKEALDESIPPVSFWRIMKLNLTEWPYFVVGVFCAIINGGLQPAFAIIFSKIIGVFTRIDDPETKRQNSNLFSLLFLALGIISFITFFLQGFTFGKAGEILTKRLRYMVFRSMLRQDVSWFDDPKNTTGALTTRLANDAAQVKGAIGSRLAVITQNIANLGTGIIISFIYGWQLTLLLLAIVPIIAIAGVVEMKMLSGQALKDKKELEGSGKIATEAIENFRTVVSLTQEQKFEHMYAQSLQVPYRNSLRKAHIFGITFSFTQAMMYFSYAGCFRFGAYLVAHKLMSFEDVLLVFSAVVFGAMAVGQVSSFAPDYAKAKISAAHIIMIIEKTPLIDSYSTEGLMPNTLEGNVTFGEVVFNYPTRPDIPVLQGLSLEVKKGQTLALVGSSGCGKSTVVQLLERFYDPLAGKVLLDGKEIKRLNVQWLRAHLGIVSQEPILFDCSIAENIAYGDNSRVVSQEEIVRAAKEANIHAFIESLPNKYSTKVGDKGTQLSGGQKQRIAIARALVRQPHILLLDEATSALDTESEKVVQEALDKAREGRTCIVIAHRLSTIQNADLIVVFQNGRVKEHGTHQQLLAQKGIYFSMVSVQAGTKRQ
Description: (§9) MDR1-MDCKII cells were seeded onto […] (PET) in a 96-well insert system. Test and reference compounds were administered to the apical (A-to-B) and basolateral (B-to-A) sides of the cell monolayer. Permeation of the compounds in both directions was assessed, with and without a P-glycoprotein (P-gp) inhibitor (GF120918). […] After a 2.5-h incubation period, each compound’s permeability and efflux ratio were calculated as described in the SI. […]
(§10) Bidirectional permeability assessment in MDR1-MDCK cells. Test and reference compounds were quantified using LC -MS/MS ana lysis based on th e peak ar ea r atio of analyte to internal standard (IS). T he apparent permeability coefficient (Papp) in cm/s was computed using the equation: Pa pp = (dCr/d t ) × V r / ( A × C 0), where dCr/ d t […]
(§11) represents the cumulative concentration of the compound in the receiver chamber over time (µM/s), Vr is the solution volume in the receiver chamber (0.075 mL on the apical side, 0.25 mL on the basolateral side), A is the surface area for transport (0.0804 cm2 f or the monolayer ar ea), and C0 is the initial concentration in the donor chamber ( µM) .
(§12) The efflux ratio was determined using the equation Efflux Ratio = P a pp ( B:
(§13) A ) / Pa pp (A: B) . […]
(§14) Additionally, the percent of lucifer yellow in the basolateral well was calculated using the equation:
(§15) Lucif er yellow = VV bbbbbbbbbbbbbbbbbbbb ×RR FFFF bbbbbbbbbbbbbbbbbbbb ×100 VV bbaaaaaa bbbb ×RRRRRR bbaaaaaa bbbb+VV bbbbbbbbbbbbbbbbbbbb ×RRFFFF bbbbbbbbbbbbbbbbbbbb wher e RFUApical and RFUBasolateral demote the r elative f luor escence unit values of lucif er yellow in the apical and basolateral wells, respectively, and VApical and VBasolateral represent the volumes of apical and basolateral wells (0.075 mL and 0.25 mL, r espectively) . T he % Lucif er Yellow should be less than 2, indicating minimal leakage. […]

[5] = biological target: P-gp (MDR1-MDCKII cells) (Homo sapiens, UniProt P08183); experiment: as above
Chain of P-gp (MDR1-MDCKII cells) (P08183 whole entry): as above
Description: as §9, §10, §11, §12, §13, §14, §15

[6] = biological target: T2, human CB2R (Homo sapiens, UniProt P34972); experiment: Radioligand competition displacement binding, [3H]CP-55,940, membranes with human CB2R; conditions: [3H]CP-55,940 displacement, read-out: CB2R hKi
T2 construct: purchased PerkinElmer; Charles River RBXCB2M400UA; A618
T2 sequence (P34972 whole entry): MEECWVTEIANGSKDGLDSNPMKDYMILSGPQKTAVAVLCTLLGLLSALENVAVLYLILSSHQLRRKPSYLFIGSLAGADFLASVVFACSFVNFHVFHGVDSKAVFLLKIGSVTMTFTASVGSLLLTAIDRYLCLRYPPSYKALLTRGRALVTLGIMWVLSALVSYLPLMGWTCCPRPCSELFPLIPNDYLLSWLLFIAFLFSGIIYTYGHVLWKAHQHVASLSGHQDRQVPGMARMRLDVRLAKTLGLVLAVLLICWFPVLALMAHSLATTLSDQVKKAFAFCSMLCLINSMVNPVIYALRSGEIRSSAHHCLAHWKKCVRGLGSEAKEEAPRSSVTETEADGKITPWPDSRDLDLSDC
Description: as §7
Supplementary Experimental Methods […]
as §8
membranes from cells overexpressing human CB2R ( Char les River CAT # A618) w e r e employed for CB2R evaluation. […]
Radioligand binding assays were performed to asse ss the binding affinity of the different compounds to hCB1R (RBHCB1M4 00UA; Per kinElmer) or hCB 2R
(RBXCB2 M400UA; PerkinElmer). Competition displacement as says w ere employed, […]
utilizing [3H] C P -55,940 as the radioligand and crude membranes from humans for CB1 R or CB2 R. T he compounds were tested at various concentrations (eight points with a five-fold serial dilution starting at two m M) , and their ability to displace [3H] CP - 55, 940 was evaluated. Upon completion of the binding assays, the reaction mixture was filtered through GF/C plates, followed by four washes with cold wash buffer. After drying for one hour, 50 μL of Perkin Elmer Microscint 20 cocktail was added to the filter plate wells, and the bound [3H] C P -55,940 radioligand was measured using a β counter. All data points were duplicated, and Ki values were determined from two independent experiments using GraphPad Prism 7.02 analysis software, extracted through nonlinear regression analysis. […]
MgCl 2. The tissue was homogenized using a glass -Teflon and Hei-T ORQUE 200 homogenizer (Heidolph; Cat#17- 012- 002- 25 -1) set to 132 rpm. The resulting suspen sion underwent centrifugation at 48,000 × g for 20 min at four °C, and the supernatant was discarded. The pellet obtained was homogenized again and subjected to a second centrifugation under the same conditions. Subsequently, the resulting pellet […]
mM EGTA, 9 mM MgCl 2, and 150 mM NaCl, followed by homogenization. The protein concentration of the suspension was determined using the BCA assay, and the suspen sion was diluted to a final concentration of 2 mg/mL in assay buffer. The prepared suspension was aliquoted on ice and stored at - 80 °C for further use.

[7] = Salmonella typhimurium, 2 μg/well

For `Nc1ccc2cc3ccccc3cc2c1` [2-aminoanthracene (2-AA), 2-aminoanthracene, reference compound], the F value ([1]; 2 μg/well) was 31.70, the “Number of revertants MEAN” value ([1]; 2 μg/well) was 348.67 and the solubility [2] was “P0”. The F value [2, 7] was 8.00 and the “Number of revertants MEAN” value [2, 7] was 317.33.
In the case of `O=[N+]([O-])c1ccc2c(c1)Cc1ccccc1-2` [2-nitrofluorene (2-NF), 2-nitrofluorene, reference compound], the F value ([1]; 4 μg/well) is reported as 14.00 and the “Number of revertants MEAN” value ([1]; 4 μg/well) is reported as 102.67.
Molecule `CNC(=O)NC1CCCOc2c1nn(-c1ccccc1Cl)c2-c1ccc(Cl)cc1` (stereo not drawn) [BNS813, 1-[2-(2-Chlorophenyl)-3-(4-chlorophenyl)-5,6,7,8-tetrahydrooxepino[3,2-c]pyrazol-8-yl]-3-methyl-urea] has a Ki [3] of 1130 nM.
`CCOC(=O)N1CCC(C(=O)NC2CCCOc3c2nn(-c2ccccc2Cl)c3-c2ccc(Cl)cc2)CC1` (stereo not drawn) [BNS816, Ethyl-4-((2-(2-chlorophenyl)-3-(4-chlorophenyl)-5,6,7,8-tetrahydro-2H-oxepino[3,2-c]pyrazol-8-yl)carbamoyl)piperidine-1-carboxylate] showed a Papp A→B at 2.5 h ([4]; MDCK-MDR1) of 6.99 ×10⁻⁶ cm/s, a Papp B→A at 2.5 h ([4]; MDCK-MDR1) of 5.37 ×10⁻⁶ cm/s and an efflux ratio at 2.5 h ([4]; MDCK-MDR1) of 0.77. It also gave a recovery at 2.5 h ([4]; MDCK-MDR1, Mean recovery % A to B, without GF120918) of 41.6%, a recovery at 2.5 h ([4]; MDCK-MDR1, Mean recovery % B to A, with GF120918) of 61.4% and a recovery at 2.5 h ([4]; MDCK-MDR1, Mean recovery % B to A, without GF120918) of 48.8%. For the same molecule, the P-gp substrate ([5]; MDR1-MDCKII cells) was “no”, the “Rank Papp” value ([5]; MDR1-MDCKII permeability rank) was “Hi gh” and the Ki [6] was 1530 nM. The Ki [3] was 8.9 nM and 8.93 nM.
